Experimental data from patent US20260092054A1, “FUSED RING COMPOUND AND PHARMACEUTICAL CONTAINING SAME” (KAKEN PHARMACEUTICAL CO., LTD., priority 2022, published 2026).

What was measured:
[1] = tested on: human STAT6; assay: Human STAT6 dependent reporter activity (IL-4 stimulated STAT6 reporter assay using STAT6-HEK293 cells); assay type: cell-based; conditions: Homo sapiens, IL-4 stimulation, luciferase activity, read-out: Inhibition rate (%); for inhibition at 0.1 µM: compound 0.1 μmol/L; for inhibition at 1 µM: compound 1 μmol/L
Protocol: Test Example 2: Measurement of Human STAT6 Dependent Reporter Activity
1) Construction of Human STAT6-HEK293 Cells
HEK 293 cells maintenance cultured by [Penicillin-Streptomycin (Thermo Fisher Scientific) and FBS, 1 vol % and 10 vol % respectively added to DMEM high glucose (Thermo Fisher Scientific)](manufactured by ATCC) were collected, and suspended in 10 mL of 0.5% BSA/PBS. 1×10^6 cells were collected, the supernatant was removed by centrifuging, and the cells were suspended in 100 μL of Nucleofector solution V (manufactured by Lonza K.K.). 2 μg of STAT6 vector [plasmid DNAs incorporating human STAT6 sequences in pcDNA3.1 (Invitrogen)] was added, and the STAT6 vector was introduced into the HEK293 cells using the program Q-001 initially registered in the Nucleofector®2b. A cell line (STAT6-HEK293 cells) consistently expressing STAT6 was acquired by selecting resistant cells in a medium containing Geneticin® (manufactured by Thermo Fisher Scientific). 2) STAT6 reporter assay using STAT6-HEK293 cells 3×10^6 STAT6-HEK293 cells maintained in assay medium [culture medium supplemented with 1 vol % Geneticin®] were harvested and seeded in a 10 cm dish. 3 μg of a STAT6 reporter vector [plasmid in which a sequence containing a STAT6 binding sequence and a C/EBP binding sequence in tandem was incorporated into pGL4.27 (manufactured by Promega Corporation)] and 9 μL of FuGENE® HD transfection reagent (manufactured by Promega Corporation) were added to 500 μL of Opti-MEM® (manufactured by Thermo Fisher Scientific) to prepare transfection solutions. The transfection solution was vortexed and left to stand for about 5 minutes, then added dropwise to the STAT6-HEK293 cells, which were then cultured overnight in a C02 incubator to produce STAT6 reporter cells.
The prepared STAT6 reporter cells were seeded on B&W isoplate-96 TC (PerkinElmer Japan Co., Ltd.) (3×10^4 cells/50 μL/well) and cultured overnight in a C02 incubator (37° C., 5% C02). 50 μL of assay medium was added to each well instead of the STAT6 reporter cells. The compound addition solution was prepared by diluting the DMSO solution of the example compound 250-fold using the assay medium. 20 μL of compound addition solution or 0.4 vol % DMSO-containing assay medium was added to the plate, and the plate was then cultured in a CO2 incubator for 1 hour. 10 μL of 80 ng/mL human IL-4 solution (Peprotech) or assay medium was added to each well, and the cells were cultured in a CO2 incubator for 6 hours.
STAT6 reporter activity was measured using the Bright-Glo® Luciferase Assay System (Promega). 100 μL of Bright-Glo® reagent was added to each well, and luciferase activity was measured using Infinite® F500. The inhibition rate of each Example compound was calculated by the following formula using the luciferase activity value (G) when no Example compound was added and stimulation with IL-4 was performed, the luciferase activity value (H) when no Example compound was added and stimulation with IL-4 was not performed, and the luciferase activity value (I) when each Example compound was treated and stimulation with IL-4 was performed.
Note that the viable cell rate under each condition was 70% or more, and it was determined that the luciferase activity inhibitory activity of each example compound was appropriately evaluated.

[2] = target: T1, human STAT6/pIL-4Rα (Homo sapiens, UniProt P42226); assay: Binding inhibitory activity between human STAT6/pIL-4Rα by fluorescence polarization method; conditions: rhSTAT6 (123-658) / FAM-pIL-4Rα peptide
T1 construct: histidine tag
T1 sequence (P42226 123-658): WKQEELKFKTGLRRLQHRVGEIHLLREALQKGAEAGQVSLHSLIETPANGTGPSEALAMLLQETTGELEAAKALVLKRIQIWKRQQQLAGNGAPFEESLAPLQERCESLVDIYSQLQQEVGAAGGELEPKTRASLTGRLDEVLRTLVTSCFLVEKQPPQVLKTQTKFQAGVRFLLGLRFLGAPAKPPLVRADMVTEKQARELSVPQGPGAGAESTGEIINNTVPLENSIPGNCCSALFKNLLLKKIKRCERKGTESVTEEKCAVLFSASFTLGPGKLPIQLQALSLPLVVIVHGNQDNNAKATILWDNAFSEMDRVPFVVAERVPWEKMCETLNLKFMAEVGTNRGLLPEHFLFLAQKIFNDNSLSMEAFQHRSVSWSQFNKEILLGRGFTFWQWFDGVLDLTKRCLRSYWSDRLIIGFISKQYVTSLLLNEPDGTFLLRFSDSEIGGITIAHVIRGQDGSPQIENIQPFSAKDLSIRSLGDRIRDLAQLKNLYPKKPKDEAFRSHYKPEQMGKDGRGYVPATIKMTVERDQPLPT
Protocol: Test Example 1: Measurement of Binding Inhibitory Activity Between Human STAT6/pIL-p 4Rα by Fluorescence Polarization Method
1) Construction of Histidine Tag-Fused Recombinant Human STAT6 (123 to 658 Region)
A histidine tag-fused recombinant human STAT6 (hereinafter referred to as rhSTAT6) expression vector [plasmid DNA in which a nucleic acid sequence containing human STAT6 (123-658 region) was inserted into a pET28a(+) vector (Novagen)] was inserted into E. coli, and the cells were cultured overnight under culturing conditions at 17° C. with IPTG treatment. After disrupting E. coli with a high-pressure homogenizer (EmulsiFlex-C3, manufactured by AVESTIN, Inc.), affinity purification using Ni-NTA agarose (manufactured by Qiagen), cation exchange chromatography using HiTrap® CM-FF (manufactured by GE healthcare), and gel filtration chromatography using Superdex® 200 10/300GL (manufactured by GE healthcare) were performed to obtain rhSTAT6.
2) Measurement of Binding Inhibitory Activity Between Human STAT6/pIL-4Rα by Fluorescence Polarization Method
A DMSO solution of the example compound was diluted with an assay buffer [for example, a buffer containing 50 mmol/L NaCl, 10 mmol/L HEPES (pH 7.0), 1 mmol/L DTT, 1 mmol/L EDTA, and 0.01 vol % NP-40, and the like] to prepare a compound-added solution. The DMSO concentration in the compound addition solution was adjusted to 1 or 2 vol %. 10 μL of the compound addition solution and an assay buffer containing 1 or 2 vol % DMSO were added to each well of a 384-well plate. 5 μL of an assay buffer solution containing rhSTAT6 (rhSTAT6 concentration: for example, 1 μmol/L) or an assay buffer was added to each well of a 384-well plate. After leaving the plate at room temperature for 30 minutes in the dark, 5 μL of an assay buffer solution (FAM-pIL-4Rp concentration: for example, 80 nmol/L) containing FAM-labeled phosphorylated IL-4Rα peptide (sequence: FAM-Ala-pTyr-Lys-Pro-Phe-Gln-Asp-Leu-IIe-NH2) (hereinafter, FAM-pIL-4Rp) or an assay buffer containing 2 vol % DMSO was added to each well of the 384-well plate. The mixture was left to stand at room temperature for 30 minutes in the dark, and then centrifuged (200 g, 1 minute, room temperature). Fluorescence polarization values were measured using Infinite (registered trademark) F500 (manufactured by Tecan Japan Co., Ltd.) (Excitation: 485 nm, Emission: 535 nm). The inhibition rate of each Example compound was calculated according to the following formula using the fluorescence polarization value (A) when rhSTAT6 and FAM-pIL-4Rp were added without adding the Example compound, the fluorescence polarization value (B) when FAM-pIL-4Rp was added without adding the Example compound and rhSTAT6, and the fluorescence polarization value (C) when each Example compound, rhSTAT6, and FAM-pIL-4Rp were added.
In the evaluation of each example compound, the 50% inhibitory concentration (IC50) of each example compound was calculated from a linear function equation of a straight line connecting two points sandwiching 50%.

| SMILES | inhibition at 0.1 µM [1] [%] | inhibition at 1 µM [1] [%] | IC50 [2] [nM] |
| --- | --- | --- | --- |
| CC1CC(C)N(c2ccc(-c3cc4ccnc(C(=O)Nc5ccc(F)c(C(N)=O)c5)c4n3CC3(C#N)CC3)cc2)C1=O (single isomer, unassigned) [Ex. 221] | 60 | 94 | 360 |
| CC1CC(C)N(c2ccc(-c3cc4ccnc(C(=O)Nc5cccc(C(N)=O)c5F)c4n3CC3(C#N)CC3)cc2)C1=O (single isomer, unassigned) [Ex. 223] | 67 | – | 320 |
| CCn1c(-c2ccc(-n3cnn(C)c3=O)cc2)nc2cc(C(F)(F)F)cc(C(=O)Nc3cccc(C(N)=O)c3F)c21 [Ex. 1] | 22 | 93 | 390 |
| CCn1c(-c2ccc3c(c2)CCN3C(C)=O)nc2cc(C(F)(F)F)cc(C(=O)Nc3cccc(C(N)=O)c3F)c21 [Ex. 2] | 14 | 72 | 490 |
| CCn1c(-c2ccc(N3CCCC3=O)cc2)nc2cc(Br)cc(C(=O)Nc3cccc(C(N)=O)c3)c21 [Ex. 4] | 12 | 64 | 740 |
| CCn1c(-c2ccc(-n3cccn3)cc2)nc2cc(Br)cc(C(=O)Nc3cccc(C(N)=O)c3)c21 [Ex. 5] | 8 | 63 | 660 |
| CCn1c(-c2ccc(-n3nccn3)cc2)nc2cc(Br)cc(C(=O)Nc3cccc(C(N)=O)c3)c21 [Ex. 6] | -1 | 52 | 1140 |
| CCn1c(-c2ccc3c(c2)CCN3C(C)=O)nc2cc(Br)cc(C(=O)Nc3cccc(C(N)=O)c3)c21 [Ex. 8] | 2 | 43 | 410 |
| CCn1c(-c2ccc(-n3cnn(C)c3=O)cc2)cc2cc(Br)cc(C(=O)Nc3ccc(F)c(C(N)=O)c3)c21 [Ex. 9] | 10 | 76 | 450 |
| CCn1c(-c2ccc(-n3c(C)nn(C)c3=O)cc2)cc2cc(C(F)(F)F)cc(C(=O)Nc3cccc(C(N)=O)c3F)c21 [Ex. 15] | 97 | 100 | 250 |
| COCCn1c(-c2ccc(-n3c(C)nn(C)c3=O)cc2)cc2cc(C(F)(F)F)cc(C(=O)Nc3ccc(F)c(C(N)=O)c3)c21 [Ex. 16] | 72 | 100 | 240 |
| CCn1c(-c2ccc(-n3c(C)nn(C)c3=O)cc2)cc2cccc(C(=O)Nc3ccc(F)c(C(N)=O)c3)c21 [Ex. 17] | 81 | 99 | 350 |
| CCn1c(-c2ccc(-n3c(C)nn(C)c3=O)cc2)cc2cc(F)cc(C(=O)Nc3ccc(F)c(C(N)=O)c3)c21 [Ex. 18] | 80 | 99 | 350 |
| CCn1c(-c2ccc(-n3c(C)nn(C)c3=O)cn2)cc2cc(C(F)(F)F)cc(C(=O)Nc3cccc(C(N)=O)c3F)c21 [Ex. 19] | 42 | 98 | 360 |
| CCn1c(-c2ccc(-n3c(C)nn(C)c3=O)nc2)cc2cc(C(F)(F)F)cc(C(=O)Nc3ccc(F)c(C(N)=O)c3)c21 [Ex. 20] | 50 | 98 | 660 |
| CCn1c(-c2ccc(-n3c(C)nn(C)c3=O)cc2)cc2ccnc(C(=O)Nc3ccc(F)c(C(N)=O)c3)c21 [Ex. 21] | 73 | 98 | 380 |
| CCn1c(-c2ccc(-n3c(C)nn(C)c3=O)cc2)cc2ccnc(C(=O)Nc3cccc(C(N)=O)c3F)c21 [Ex. 22] | 89 | 99 | 320 |
| CCn1c(-c2ccc(-n3c(C)nn(C)c3=O)cc2)cc2cc(C(F)(F)F)nc(C(=O)Nc3ccc(F)c(C(N)=O)c3)c21 [Ex. 23] | 86 | 100 | 240 |
| Cc1nn(C)c(=O)n1-c1ccc(-c2cc3ccnc(C(=O)Nc4ccc(F)c(C(N)=O)c4)c3n2CC2CC2)cc1 [Ex. 24] | 54 | 98 | 320 |
